In patent US12351581B2, “Compounds for FGFR inhibition” (Cogent Biosciences, Inc., priority 2023, dated 2025):
Like-named read-outs stand apart in the source and are kept apart here.

What was measured:
FGFR2-WT = FGFR2-WT (Homo sapiens, UniProt P21802); experiment: Phosphorylated FGFR2-WT (pFGFR2-WT) cell assay, KATOIII cells; format: cell-based; conditions: 1 hour incubation, phospho FGFR2 HTRF
Experimental: KATOIII cells were grown in the appropriate growth medium, IMDM supplemented with 20% fetal bovine serum. Cells were seeded into a 384-well at 1×10^5 cells/25 μL/well. Cells were treated with compound using three-fold serial dilutions at final concentrations ranging from 10 μM to 0.5 nM. Compound was incubated on cells for 1 hour at 37° C., 5% CO2.
Following the 1-hour incubation with compounds, cell lysates were prepared and phospho FGFR2 was measured using the HTRF Phospho-FGFR2 (TYR653/654) Detection Kits (CisBio, cat #64FGFR2Y6PEG). 8 μL of cell lysis buffer (4×) supplied with 1× Phospho and Total protein blocking reagent (CisBio, cat #64FGFR2Y6PEG, CisBio, cat #64KB1AAC) was then added to the wells. Cells were incubated with lysis buffer for 40 minutes at 4° C. under shaking conditions. Plates were centrifuged at 1500 rpm for 3 min and then 16 μL of cell lysate was transferred from the cell-culture plate to a small volume detection plate with the added premixed antibody solutions (4 μL) (CisBio, cat #64FGFR2Y6PEG). Plates were centrifuged at 1000 rpm for 1 min then incubated at 25° C. for 120 min, then overnight at 4° C. Plates were read on the En Vision multimode plate reader via HTRF dual wavelength detection. One hundred percent of control (POC) was determined using DMSO treated samples, and 0 POC was determined using the top concentration of a control compound. A 4-parameter logistic curve was fit to the POC values as a function of compound concentration to determine the IC50 value.

FGFR2 N549H = target: T1, FGFR2 N549H (Homo sapiens, UniProt P21802, N549H); experiment: FGFR mutant enzyme assay (HTRF KinEASE-TK); format: biochemical; conditions: ATP 0.9 uM
T1 construct: biochemical assays using purified intracellular domains of the respective isoforms; purchased Carna Bioscience 08-532
T1 sequence (P21802 399-821 N549H limits assumed): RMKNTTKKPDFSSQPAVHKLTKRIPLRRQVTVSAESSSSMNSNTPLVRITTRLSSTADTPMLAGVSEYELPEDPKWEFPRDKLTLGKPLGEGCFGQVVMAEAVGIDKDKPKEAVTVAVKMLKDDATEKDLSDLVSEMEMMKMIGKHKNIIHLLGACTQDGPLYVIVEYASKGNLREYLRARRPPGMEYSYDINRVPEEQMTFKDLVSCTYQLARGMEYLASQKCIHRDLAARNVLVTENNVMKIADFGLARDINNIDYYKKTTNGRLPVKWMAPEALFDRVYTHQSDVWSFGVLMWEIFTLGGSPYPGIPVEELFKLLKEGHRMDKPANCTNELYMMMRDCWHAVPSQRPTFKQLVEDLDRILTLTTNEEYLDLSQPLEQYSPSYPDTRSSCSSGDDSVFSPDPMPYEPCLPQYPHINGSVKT
Experimental: (§1) Activity against FGFR wild type and mutant enzymes were determined in biochemical assays using purified intracellular domains of the respective isoforms using HTRF KinEASE-TK assay technology from CisBio, now PerkinElmer. (Catalogue number 62TK0PEC). Briefly test compounds were tested in 11 point 1:3 serial dilutions, typical final concentration range from 10,000 nM to 0.17 nM. Test compounds were dissolved in DMSO and added to assay plates using acoustic transfer. Enzyme was pre-incubated with test compound for 30 minutes and the assay was initiated by addition of ATP and TK-peptide substrate. After 60 minutes at room temperature the reaction was quenched with detection reagent and incubated for an additional 60 minutes at room temperature. The plates were read using a multimode reader and the emission ratio of 665 nm to 615 nm was determined. This ratio was converted to percent of control (POC). [1-(high control-sample signal)/(high control-low control)]*100. Wells without compound were used to determine high control values and wells without enzyme were used to determine low control values. The POC values were fit using a four-parameter logistic model and the value where the fit curve was equal to 50 POC was reported as the IC50 using the Signals Vitro Vivo software package (PerkinElmer). Final assay conditions were: 50 mM HEPES pH7.5, 10 mM MgCl2, 1 mM EDTA, 0.01% Brij-35, 2 mM MnCl2, 1 mM DTT, and 0.5 uM TK-peptide. The enzyme source, catalogue number, final enzyme concentration, and final ATP concentration can be found in the tables 1-2 below.

FGFR2 V564F = target: T2, FGFR2 V564F (Homo sapiens, UniProt P21802, V564F); experiment: FGFR mutant enzyme assay (HTRF KinEASE-TK); format: biochemical; conditions: ATP 1.5 uM
T2 construct: biochemical assays using purified intracellular domains of the respective isoforms; purchased SignalChem Biotech F05-12FG
T2 sequence (P21802 399-821 V564F limits assumed): as the sequence (P21802 399-821 N549H limits assumed) above, with H151N, V166F counted along it
Experimental: as §1

FGFR2 V564I = target: T3, FGFR2 V564I (Homo sapiens, UniProt P21802, V564I); experiment: FGFR mutant enzyme assay (HTRF KinEASE-TK); format: biochemical; conditions: ATP 0.4 uM
T3 construct: biochemical assays using purified intracellular domains of the respective isoforms; purchased Carna Bioscience 08-546
T3 sequence (P21802 399-821 V564I limits assumed): as the sequence (P21802 399-821 N549H limits assumed) above, with H151N, V166I counted along it
Experimental: as §1

FGFR2 = target: T4, FGFR2 (Homo sapiens, UniProt P21802); experiment: FGFR wild type enzyme assay (HTRF KinEASE-TK); format: biochemical; conditions: ATP 2 uM
T4 construct: biochemical assays using purified intracellular domains of the respective isoforms; purchased Carna Bioscience 08-134
T4 sequence (P21802 399-821 limits assumed): as the sequence (P21802 399-821 N549H limits assumed) above, with H151N counted along it
Experimental: as §1

[1] = compound table after the examples, read-out: Enz FGFR2

Chain of FGFR2-WT (P21802 430-767 limits assumed): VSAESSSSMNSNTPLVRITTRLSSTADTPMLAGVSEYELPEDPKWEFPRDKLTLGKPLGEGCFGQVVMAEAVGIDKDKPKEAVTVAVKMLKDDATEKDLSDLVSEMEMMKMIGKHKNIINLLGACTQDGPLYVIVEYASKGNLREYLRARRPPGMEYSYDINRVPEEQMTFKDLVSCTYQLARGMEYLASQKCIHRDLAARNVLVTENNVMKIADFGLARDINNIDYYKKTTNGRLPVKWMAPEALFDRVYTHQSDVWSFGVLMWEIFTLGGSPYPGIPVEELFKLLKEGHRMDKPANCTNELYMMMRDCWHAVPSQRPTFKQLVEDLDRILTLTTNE

| Structure (SMILES) | IC50 (FGFR2-WT) [nM] | IC50 (FGFR2 N549H) [nM] | IC50 (FGFR2 V564F) [nM] | IC50 (FGFR2 V564I) [nM] | IC50 (FGFR2; Table 3, read-out: FGFR2 Enz) [nM] | IC50 (FGFR2; [1]) [nM] |
| --- | --- | --- | --- | --- | --- | --- |
| Cc1c(-c2cc(O[C@H](C)c3ccc(F)cn3)c3c(C#N)cnn3c2)cnn1[C@H]1CCCN(C(=O)[C@H](C)O)C1 [Compound 18, 4-((R)-1-(5-fluoropyridin-2-yl)ethoxy)-6-(1-((S)-1-((S)-2-hydroxypropanoyl)piperidin-3-yl)-5-methyl-1H-pyrazol-4-yl)pyrazolo[1,5-a]pyridine-3-carbonitrile] | 4 | 0.5 | 1 | 2 | 0.5 | 0.6 |
| C[C@H](O)C(=O)N1CCC(n2cc(-c3cc(O[C@H](C)c4ccc(F)cn4)c4c(C#N)cnn4c3)cn2)CC1 [Compound 19, 4-((R)-1-(5-fluoropyridin-2-yl)ethoxy)-6-(1-(1-((S)-2-hydroxypropanoyl)piperidin-4-yl)-1H-pyrazol-4-yl)pyrazolo[1,5-a]pyridine-3-carbonitrile] | 1.25 | 0.1 | 0.3 | 0.4 | 0.15 | 0.15 |
| Cc1c(-c2cc(O[C@H](C)c3ccc(F)cn3)c3c(C#N)cnn3c2)cnn1C [Compound 21, 6(R)-6-(1,5-dimethyl-1H-pyrazol-4-yl)-4-(1-(5-fluoropyridin-2-yl)ethoxy)pyrazolo[1,5-a]pyridine-3-carbonitrile] | 24 | 3 | 6 | 11 | 1.7 | 1.7 |
| Cc1c(-c2cc(O[C@H](C)c3ccc(F)cn3)c3c(C#N)cnn3c2)cnn1[C@H]1CC[C@](C)(O)CC1 [Compound 22, 4-((R)-1-(5-fluoropyridin-2-yl)ethoxy)-6-(1-((1r,4R)-4-hydroxy-4-methylcyclohexyl)-5-methyl-1H-pyrazol-4-yl)pyrazolo[1,5-a]pyridine-3-carbonitrile] | 2.7 | 0.4 | 1 | 1.4 | 0.3 | 0.3 |
| Cc1c(-c2cc(O[C@H](C)c3ccc(F)cn3)c3c(C#N)cnn3c2)cnn1[C@H]1CC[C@@](C)(O)CC1 [Compound 23, 4-((R)-1-(5-fluoropyridin-2-yl)ethoxy)-6-(1-((1s,4S)-4-hydroxy-4-methylcyclohexyl)-5-methyl-1H-pyrazol-4-yl)pyrazolo[1,5-a]pyridine-3-carbonitrile] | 4 | 0.6 | 1 | 2 | 0.4 | 0.4 |
| C[C@@H](Oc1cc(-c2ccc(N3CCN(C)[C@@H](CO)C3)nc2)cn2ncc(C#N)c12)c1ccc(F)cn1 [Compound 24, 4-((R)-1-(5-fluoropyridin-2-yl)ethoxy)-6-(6-((R)-3-(hydroxymethyl)-4-methylpiperazin-1-yl)pyridin-3-yl)pyrazolo[1,5-a]pyridine-3-carbonitrile] | 3 | 0.3 | 1 | 1 | 0.3 | 0.3 |
| C[C@@H](Oc1cc(-c2ccc(N3CC[C@@H](O)[C@@H](O)C3)nc2)cn2ncc(C#N)c12)c1ccc(F)cn1 [Compound 25, 6-(6-((3S,4R)-3,4-dihydroxypiperidin-1-yl)pyridin-3-yl)-4-((R)-1-(5-fluoropyridin-2-yl)ethoxy)pyrazolo[1,5-a]pyridine-3-carbonitrile] | 3 | 0.25 | 0.7 | 1 | 0.3 | 0.3 |
| C[C@@H](Oc1cc(-c2ccc(N3CC[C@H](O)[C@H](O)C3)nc2)cn2ncc(C#N)c12)c1ccc(F)cn1 [Compound 26, 6-(6-((3R,4S)-3,4-dihydroxypiperidin-1-yl)pyridin-3-yl)-4-((R)-1-(5-fluoropyridin-2-yl)ethoxy)pyrazolo[1,5-a]pyridine-3-carbonitrile] | 4 | 0.3 | 1 | 1 | 0.5 | 0.5 |
| Cc1c(-c2cc(O[C@H](C)c3ccc(F)cn3)c3c(C#N)cnn3c2)cnn1C[C@H](O)CO [Compound 27, 6-(1-((S)-2,3-dihydroxypropyl)-5-methyl-1H-pyrazol-4-yl)-4-((R)-1-(5-fluoropyridin-2-yl)ethoxy)pyrazolo[1,5-a]pyridine-3-carbonitrile] | 23 | 5 | 11 | 17 | 3 | 3 |
| Cc1nn(C[C@H](O)CO)cc1-c1cc(O[C@H](C)c2ccc(F)cn2)c2c(C#N)cnn2c1 [Compound 28, 6-(1-((S)-2,3-dihydroxypropyl)-3-methyl-1H-pyrazol-4-yl)-4-((R)-1-(5-fluoropyridin-2-yl)ethoxy)pyrazolo[1,5-a]pyridine-3-carbonitrile] | 17 | 5 | 10 | 12 | 3 | 3 |
| C[C@@H](Oc1cc(-c2cnn([C@H]3CCCNC3)c2N)cn2ncc(C#N)c12)c1ccc(F)cn1 [Compound 29, 6-(5-amino-1-((S)-piperidin-3-yl)-1H-pyrazol-4-yl)-4-((R)-1-(5-fluoropyridin-2-yl)ethoxy)pyrazolo[1,5-a]pyridine-3-carbonitrile] | 4 | 0.6 | 1.4 | 1.5 | 0.3 | 0.3 |
| C[C@@H](Oc1cc(-c2cnn(C)c2N)cn2ncc(C#N)c12)c1ccc(F)cn1 [Compound 30, (R)-6-(5-amino-1-methyl-1H-pyrazol-4-yl)-4-(1-(5-fluoropyridin-2-yl)ethoxy)pyrazolo[1,5-a]pyridine-3-carbonitrile] | 9 | 2 | 3.7 | 6 | 1 | 1 |
| C[C@@H](Oc1cc(-c2cnn(CCO)c2N)cn2ncc(C#N)c12)c1ccc(F)cn1 [Compound 31, (R)-6-(5-amino-1-(2-hydroxyethyl)-1H-pyrazol-4-yl)-4-(1-(5-fluoropyridin-2-yl)ethoxy)pyrazolo[1,5-a]pyridine-3-carbonitrile] | 7 | 2 | 5 | 5.6 | 1 | 1 |
| C[C@@H](Oc1cc(-c2cnn([C@H]3CC[C@H](O)CC3)c2N)cn2ncc(C#N)c12)c1ccc(F)cn1 [Compound 32, 6-(5-amino-1-((1r,4R)-4-hydroxycyclohexyl)-1H-pyrazol-4-yl)-4-((R)-1-(5-fluoropyridin-2-yl)ethoxy)pyrazolo[1,5-a]pyridine-3-carbonitrile] | 2.5 | 0.3 | 1 | 1 | 0.4 | 0.4 |
| Cc1c(-c2cc(O[C@H](C)c3ccc(F)cn3)c3c(C#N)cnn3c2)cnn1C1CCS(=O)(=O)CC1 [Compound 33, (R)-6-(1-(1,1-dioxidotetrahydro-2H-thiopyran-4-yl)-5-methyl-1H-pyrazol-4-yl)-4-(1-(5-fluoropyridin-2-yl)ethoxy)pyrazolo[1,5-a]pyridine-3-carbonitrile] | 6 | 0.7 | 2 | 3 | 1 | 1 |
